Measured values taken from patent publication US20230372433A1, “NANOPARTICLE FOR ANTI-CANCER PEPTIDES AND USES THEREOF” (KING'S COLLEGE LONDON, priority 2020, published 2023).
Read-outs that look alike come from different tables or passages of the source.

Legend:
[1] = tested on: HMLER (human breast cancer bulk cell); test: MTT cytotoxicity assay, HMLER; format: cell-based; details: 72 hr, MTT; read-out: IC50 HMLER
[2] = tested on: HMLER-shEcad (human breast cancer stem cell); test: MTT cytotoxicity assay, HMLER-shEcad; format: cell-based; details: 72 hr, MTT; read-out: IC50 HMLER-shEcad
[3] = tested on: MCF-10A (human breast epithelial cell); test: cells
[4] = tested on: U2OS (human bone osteosarcoma); test: MTT cytotoxicity assay, U2OS; format: cell-based; details: 72 hr
[5] = tested on: HEK293T (human embryonic kidney cell); test: MTT cytotoxicity assay, HEK293T; format: cell-based; details: 72 hr, MTT; read-out: IC50 HEK293T
[6] = Tryptophan fluorescent binding assay, POPC vesicles; details: 50 μM peptide, PBS pH 7.4
How it was run: (§1)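 Tryptophan fluorescence was measured with peptide fixed at 50 μM and POPC or 3POPC/1POPG LUVs (100 nm extruded) titrated 0–5000 μM in PBS pH 7.4, read after 60 min. Excitation was 280 nm and emission 300–450 nm. The value is the lipid concentration giving 50% peptide binding, expressed as lipid per peptide.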

[7] = Tryptophan fluorescent binding assay, 3POPC/1POPG vesicles; details: 50 μM peptide, PBS pH 7.4
How it was run: as §1

[8] = ANTS/DPX liposome leakage assay, POPC vesicles; format: biochemical; details: 0.5 mM vesicles
How it was run: (§2)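 0.5 mM extruded 100 nm LUVs loaded with 5 mM ANTS/12.5 mM DPX were incubated 3 h with peptide at 0–20 μM in PBS pH 7.4 or HCl-adjusted PBS pH 4.8. Fluorescence read at ex 350/em 510 nm; 10% Triton set maximum leakage; values expressed as lipid per peptide.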

[9] = ANTS/DPX liposome leakage assay, 3POPC/1POPG vesicles; format: biochemical; details: for Peptide Concentration-induced 50% ANTS/DPX leakage at pH 4.8 (L/P) 3POPC/1POPG Vesicle / Peptide Concentration-induced 50% ANTS/DPX leakage at pH 7.4 (L/P) 3POPC/1POPG Vesicle: 0.5 mM vesicles; for liposome leakage activity from anionic vesicle at pH 4.8: compared with zwitterionic vesicle
How it was run: as §2

[10] = read-out: IC50 MCF-10A, 72 hr, MTT

Row | Molecule | IC50 [1] [µM] | IC50 [2] [µM] | IC50 [3] [µM] | IC50 [4] [µM] | IC50 [5] [µM] | Lipid Concentration-induced 50% Peptide Binding (L/P) POPC Vesicle [6] [L/P] | Lipid Concentration-induced 50% Peptide Binding (L/P) 3POPC/1POPG Vesicle [7] [L/P] | Peptide Concentration-induced 50% ANTS/DPX leakage at pH 4.8 (L/P) POPC Vesicle [8] [L/P] | Peptide Concentration-induced 50% ANTS/DPX leakage at pH 7.4 (L/P) POPC Vesicle [8] [L/P] | Peptide Concentration-induced 50% ANTS/DPX leakage at pH 4.8 (L/P) 3POPC/1POPG Vesicle [9] [L/P] | Peptide Concentration-induced 50% ANTS/DPX leakage at pH 7.4 (L/P) 3POPC/1POPG Vesicle [9] [L/P] | liposome leakage activity from anionic vesicle at pH 4.8 [9] | IC50 [3, 10] [µM]
1 | CC(C)C[C@H](NC(=O)CN)C(=O)N[C@@H](CC(C)C)C(=O)N[C@@H](CC(=O)O)C(=O)N[C@@H](CC(C)C)C(=O)N[C@@H](CC(C)C)C(=O)N[C@@H](CCC(=O)O)C(=O)N[C@@H](CC(C)C)C(=O)N[C@@H](CC(C)C)C(=O)N[C@@H](CC(C)C)C(=O)N[C@@H](CCCCN)C(=O)N[C@@H](C)C(=O)N[C@@H](C)C(=O)NCC(=O)N[C@@H](Cc1c[nH]c2ccccc12)C(N)=O [DEK] | 1.14 ± 0.52 | 0.7 ± 0.07 | ≥ 100 | 19.9 ± 2.65 | 6.8 ± 0.85 | 1.50 | 1.67 | 10 | 747 | 469 | 773 | relatively higher liposome leakage activity | 
2 | GLLDLLKLLLHAAG [DKH] | 3.45 ± 0.07 | 2.8 ± 0.28 |  | 21.1 ± 3.01 | 6.15 ± 1.34 | 10.00 | 0.46 | 41 | 614 | 58 | 274 |  | 7.05 ± 0.21
3 | GLLKLLHLLLEAAG [KHE] | 3.7 ± 0.14 | 2.92 ± 0.17 |  | 53 ± 2.83 | 26 ± 2.83 | 0.88 | 0.71 | 183 | 981 | 156 | 188 |  | 20.9 ± 5.87
4 | GLLELLHLLLKAAG [EHK] | 1.35 ± 0.35 | 0.71 ± 0.13 |  | 25 | 5.35 ± 0.07 | 0.56 | 0.42 | 55 | 981 | 117 | 505 |  | 3.6 ± 0.99
5 | CC(C)C[C@H](NC(=O)CN)C(=O)N[C@@H](CC(C)C)C(=O)N[C@@H](CCC(=O)O)C(=O)N[C@@H](CC(C)C)C(=O)N[C@@H](CC(C)C)C(=O)N[C@@H](Cc1c[nH]cn1)C(=O)N[C@@H](CC(C)C)C(=O)N[C@@H](CC(C)C)C(=O)N[C@@H](CC(C)C)C(=O)N[C@@H](CCC(=O)O)C(=O)N[C@@H](C)C(=O)N[C@@H](C)C(=O)NCC(=O)N[C@@H](Cc1c[nH]c2ccccc12)C(N)=O [EHE] | 3.9 ± 0.28 | 2.55 ± 0.07 | ≥ 100 | 18.2 ± 1.06 | 13 | 0.44 | 0.44 | 75 | 952 | 384 | 706 | relatively higher liposome leakage activity | 
6 | GLLDLLELLLEAAG [DEE] | 5.55 ± 0.35 | 6.05 ± 2.76 |  | 61 ± 1.41 | 9.91 ± 0.44 | 0.63 | 0.38 | 110 | 644 | 164 | 597 |  | 8.4 ± 1.56
7 | GLLHLLKLLLKAAG [HKK] | 3.4 ± 0.71 | 2.6 ± 0.42 |  | 12.23 ± 0.11 | 9.5 ± 0.99 | 0.18 | 0.14 | 106 | 657 | 106 | 90 |  | 2.18 ± 0.39
8 | GLLKLLELLLKAAG [KEK] | 1.6 ± 0.14 | 1.35 ± 0.07 |  | 8.15 ± 0.49 | 3.2 ± 0.14 | 0.47 | 0.50 | 110 | 1173 | 126 | 438 |  | 1.55 ± 0.07
9 | CC(C)C[C@H](NC(=O)CN)C(=O)N[C@@H](CC(C)C)C(=O)N[C@@H](CCCCN)C(=O)N[C@@H](CC(C)C)C(=O)N[C@@H](CC(C)C)C(=O)N[C@@H](CCC(=O)O)C(=O)N[C@@H](CC(C)C)C(=O)N[C@@H](CC(C)C)C(=O)N[C@@H](CC(C)C)C(=O)N[C@@H](CCC(=O)O)C(=O)N[C@@H](C)C(=O)N[C@@H](C)C(=O)NCC(=O)N[C@@H](Cc1c[nH]c2ccccc12)C(N)=O [KEE] | 3.75 ± 0.78 | 2.05 ± 0.21 | ≥ 100 | 49.4 ± 13.3 | 11.1 ± 1.84 | 0.20 | 0.20 | 97 | 626 | 108 | 657 |  | 
10 | GLLKLLHLLLHAAG [KHH] | 5.2 ± 0.71 | 4.45 ± 0.49 |  | 39.8 ± 5.3 | 7.75 ± 0.78 | 3.50 | 0.94 | 227 | 1153 | 48 | 329 |  | 10.3 ± 0.49
11 | GLLHLLELLLEAAG [HEE] | 6.5 ± 0.71 | 4.95 ± 0.49 |  | 47.5 ± 11 | 10.2 ± 0.2 | 0.58 | 0.50 | 100 | 876 | 122 | 792 |  | 58 ± 41
